Reference: patent US20150011466A1, “APJ Receptor Compounds” (priority 2012, published 2015)
Where a SMILES comes first, the peptide text is derived from it. [ ]: non-standard residue; d: D form. The star is where a group is joined. Palmitoyl = CCCCCCCCCCCCCCCC(=O)*

Legend:
[1] = test system: Human TRex cells not induced, do not express the APJ receptor; assay: HTRF cAMP assay in Human TRex cells not induced (no APJ receptor); assay type: cell-based
Method: cAMP kits based on a competitive immunoassay using cryptate-labeled anti-cAMP antibody and d2-labeled cAMP were used to assay the effects of APJ compounds of the present invention. This assay measures the increase in intracellular cAMP upon Gs-coupled receptor activation as well as decrease in forskolin (or a more soluble version of forskolin—NKH477) stimulated increase in cAMP upon Gi-coupled receptor activation. […] Cells are treated with lnG/mL doxycycline and seeded in all white 96 well plates @ 40 k/well overnight.

APJ receptor = biological target: T1, APJ receptor (Homo sapiens, UniProt P35414); assay: HTRF cAMP assay, inhibition of NKH477 stimulated cAMP in Human TRex cells expressing APJ upon doxycycline induction (APJ-hTREX); assay type: cell-based; details: for Ranking: class combining EC50 and % histamine; for percent intrinsic activity at 0.3 µM: read-out: % IA (@ 300 nM)
T1 construct: expressed in transfected cells; host or cells: Human TRex cells (doxycycline-inducible)
T1 sequence (P35414 1-380): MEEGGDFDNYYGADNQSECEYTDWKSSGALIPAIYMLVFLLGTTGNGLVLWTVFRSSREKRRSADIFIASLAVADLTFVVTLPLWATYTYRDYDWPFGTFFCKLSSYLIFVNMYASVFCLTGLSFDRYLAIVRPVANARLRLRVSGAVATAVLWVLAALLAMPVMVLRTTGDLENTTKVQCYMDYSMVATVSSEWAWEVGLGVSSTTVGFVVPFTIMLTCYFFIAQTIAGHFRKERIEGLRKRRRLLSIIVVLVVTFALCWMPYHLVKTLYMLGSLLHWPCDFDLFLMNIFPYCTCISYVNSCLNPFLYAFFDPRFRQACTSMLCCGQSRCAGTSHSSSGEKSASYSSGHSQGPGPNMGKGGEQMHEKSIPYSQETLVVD
In short: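 Cells stimulated with NKH477 and cAMP measured by HTRF competitive immunoassay (cryptate anti-cAMP antibody, d2-labeled cAMP). APJ-hTREX cells induced with […] doxycycline and seeded overnight at 40 k/well.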

[2] = biological target: T2, APJ receptor (β-arrestin recruitment) (Homo sapiens, UniProt P35414); assay: β-Arrestin signaling assay (DiscoveRx PathHunter, enzyme fragment complementation); assay type: cell-based
T2 sequence (P35414 1-380): T1 sequence (P35414 1-380)
Source text: Activation of the β-Arrestin signaling pathway was monitored using the commercially available DiscoveRx PathHunter® assay. This assay employs a homogenous, non-imaging assay format called Enzyme Fragment Complementation (EFC) using β-galactosidase (β-Gal) as the functional reporter. […] EA is fused to β-Arrestin and ED is fused to the GPCR of interest. When the GPCR is activated and β-Arrestin is recruited to the receptor, ED and EA complementation occurs, restoring βGal activity which is measured using chemiluminescent PathHunter® Detection Reagent.

Gi-coupled receptor APJ = biological target: T3, Gi-coupled receptor APJ (Homo sapiens, UniProt P35414); assay: HTRF cAMP assay, inhibition of NKH477 stimulated cAMP in HEK cells stably expressing APJ (APJ-h HEK 293 cells); assay type: cell-based; details: for inhibition of NKH477 stimulated increase in cAMP (concentration response curves, FIGS. 1A-1E): HEK cells stably expressing APJ
T3 sequence (P35414 1-380): T1 sequence (P35414 1-380)
Source text: HTRF (homogeneous time resolved fluorescence) is a technology developed by Cisbio Bioassays based on TR-FRET (time-resolved fluorescence resonance energy transfer). Cisbio Bioassays has developed a wide selection of HTRF-based assays compatible with whole cells, thereby enabling functional assays to run under more physiological conditions. The IP-One assays are competitive immunoassays using cryptate-labeled anti-IP1 monoclonal antibody and d2-labeled IP1. IP1 is a relatively stable downstream metabolite of IP3, and accumulates in cells following Gq receptor activation.
cAMP kits based on a competitive immunoassay using cryptate-labeled anti-cAMP antibody and d2-labeled cAMP were used to assay the effects of APJ compounds of the present invention. […] Cells are treated with […] doxycycline and seeded in all white 96 well plates @ 40 k/well overnight.

SMILES	inhibition of NKH477 stimulated cAMP [1]	EC50 (APJ receptor)	Ranking (APJ receptor)	percent intrinsic activity at 0.3 µM (APJ receptor)	EC50 [2]	β-arrestin recruitment (dose dependent increase in chemiluminescence) ([2]; in words)	Emax ([2]; read-out: β-arrestin Signaling Max Response)	Histimine (% vs. 48/40) (Histimine (% vs. 48/40))	EC50 (Gi-coupled receptor APJ)	inhibition of NKH477 stimulated increase in cAMP (concentration response curves, FIGS. 1A-1E) (Gi-coupled receptor APJ)
CSCC[C@H](NC(=O)[C@@H]1CCCN1C(=O)CNC(=O)[C@H](CCCCN)NC(=O)[C@H](Cc1c[nH]cn1)NC(=O)[C@H](CO)NC(=O)[C@H](CC(C)C)NC(=O)[C@H](CCCNC(=N)N)NC(=O)[C@@H]1CCCN1C(=O)[C@H](CCCNC(=N)N)NC(=O)[C@@H](N)CCC(N)=O)C(=O)N1CCC[C@H]1C(=O)N[C@@H](Cc1ccccc1)C(=O)O [Apelin]	does not inhibit	–	–	–	–	–	–	–	–	–
CCCCCCCCCCCCCCCC(=O)N[C@H](C(=O)N[C@H](C(=O)N[C@@H](Cc1c[nH]cn1)C(=O)N[C@@H](CCCNC(=N)N)C(=O)N[C@@H](CO)C(=O)N[C@@H](CO)C(=O)N[C@@H](CCC(=O)O)C(=O)N[C@H](CCCCN)C(=O)N[C@@H](CCCNC(=N)N)C(=O)N[C@@H](CCCNC(=N)N)C(=O)N[C@@H](CO)C(=O)N[C@@H](C)C(=O)N[C@@H](CC(=O)O)C(=O)N[C@H](C(=O)N[C@@H](Cc1ccccc1)C(=O)N[C@H](C(N)=O)[C@@H](C)CC)[C@@H](C)CC)C(C)C)[C@@H](C)O [Compound 9] (Palmitoyl-TVHRSSE[dK]RRSADIFI-NH2; C-terminus assumed)	–	79.6 nM	*** (EC50<100 nM and % histamine>35%)	75%	2260 nM	weakly engaged	22%	36%	79 nM	–
CCCCCCCCCCCCCCCC(=O)NCC(=O)N[C@H](C(=O)N[C@@H](Cc1ccccc1)C(=O)N[C@@H](CCCNC(=N)N)C(=O)N[C@@H](CO)C(=O)N[C@@H](CO)C(=O)N[C@@H](CCC(=O)O)C(=O)N[C@H](CCCCN)C(=O)N[C@@H](CCCNC(=N)N)C(=O)N[C@@H](CCCNC(=N)N)C(=O)N[C@@H](CO)C(=O)N[C@@H](C)C(=O)N[C@@H](CC(=O)O)C(=O)N[C@H](C(=O)N[C@@H](Cc1ccccc1)C(=O)N[C@H](C(N)=O)[C@@H](C)CC)[C@@H](C)CC)C(C)C [Compound 68] (Palmitoyl-GVFRSSE[dK]RRSADIFI-NH2)	–	56.4 nM	***** (EC50<100 nM and % histamine<35%)	69%	–	–	–	21%	–	in a dose dependent manner
CCCCCCCCCCCCCCCC(=O)N[C@H](C(=O)N[C@H](C(=O)NCC(=O)N[C@@H](CCCNC(=N)N)C(=O)N[C@@H](CO)C(=O)N[C@@H](CO)C(=O)N[C@@H](CCC(=O)O)C(=O)N[C@H](CCCCN)C(=O)N[C@@H](CCCNC(=N)N)C(=O)N[C@@H](CCCNC(=N)N)C(=O)N[C@@H](CO)C(=O)N[C@@H](C)C(=O)N[C@@H](CC(=O)O)C(=O)N[C@H](C(=O)N[C@@H](Cc1ccccc1)C(=O)N[C@H](C(N)=O)[C@@H](C)CC)[C@@H](C)CC)C(C)C)[C@@H](C)O [Compound 70] (Palmitoyl-TVGRSSE[dK]RRSADIFI-NH2)	–	52.5 nM	***** (EC50<100 nM and % histamine<35%)	81%	–	–	–	29%	–	in a dose dependent manner
